Measured values: US6987111B2 (Alkermes Controlled Therapeutics, II, priority 2003, dated 2006)

Experiment: Pharmacokinetic evaluation in rats following single subcutaneous doses
Type: in vivo
Details: male Sprague-Dawley rats, single SC injection of 40 mg in 0.75 mL aqueous diluent, plasma 2 h to 14 d
Method: Species and Strain: Sprague-Dawley rats. Male; 450+/−50 grams.
Study Groups: 4 Groups. 12 subjects
Route of Injection: Subcutaneous (SC) injection into the interscapular region. Injection Vehicle: Aqueous Diluent: Water, 3% CMC low viscosity, 0.1% Tween 20, in 0.9% NaCl Dose Volumes: Dose suspensions were formulated as follows: • Group A: 20 mg powder in 0.75 mL Diluent • Group B: 40 mg microparticles in 0.75 mL Diluent • Group C: 20 mg powder in 0.75 mL Diluent • Group D: 50 mg powder in 0.75 mL Diluent Blood Collection: Blood samples were collected via a lateral tail vein after anesthesia with Halothane. A syringe without an anticoagulant was used for the blood collection, then the whole blood was transferred to tubes containing K2 EDTA and mixing beads (Microtainer®; MFG# BD365974). The blood samples were processed (the tubes are inverted 15–20 times and centrifuged for 2 minutes at >14,000 g's) to separate plasma. The plasma samples prepared in this manner were transferred to labeled plain tubes (Microtainer®; MFG# BD5962) and stored frozen at <−70° C. Blood Volumes: At least 250 μL blood for each time point during the first 24 hours and 400 μL for each time point thereafter.

Substance: haloperidol pamoate [pamoate salt]
- extended release profile (plasma concentrations over time): good to excellent extended release profiles
